# From patent US20240269320A1, “EXTENDED RELEASE DRUG DELIVERY SYSTEM FOR OCULAR DRUGS AND METHODS OF USE” (Eyedea Bio, LLC, priority 2021, published 2024)
# “Also recorded” adds a separate entry of the source. Read-outs that look alike come from different tables or passages of the source. Non-standard residues stand in square brackets, D forms with d. Residues, ends and D or L forms follow the SMILES beside them. *: point of attachment. Dmt = Cc1cc(O)cc(C)c1C[C@H](N)C(=O)O; X1 = CCCCCCCCCCCCCCCCCCO*
# What was measured:
# [1] = In vivo kinetics after intravitreal injection of bolus implant in rabbit eyes (LC/MS, retina); details: for residual drug in recovered bolus/implants: bolus formulation of native peptide
# carboxyesterase = assay: Cleavage of prodrug ester bond by carboxyesterase in vitro; format: in vitro ADME; details: 37° C., carboxyesterase 0.1 μg/mL
# Description: One specific example of EY005-prodrug includes EY005-stearyl (depicted in FIG. 27A), wherein EY005 is linked via ester bond to stearyl alcohol, one member from the group of long-chain saturated fatty alcohols. On cleavage of the ester bond, the prodrug EY005-stearyl releases the EY005 MTT. […] Upon addition of EY005-stearyl prodrug to phosphate-buffered saline solution at 37° C. without esterase, the ester bond of the EY005-stearyl prodrug cleaves more slowly (˜36 hours) by hydrolysis (FIG. 28C).
# EY005-stearyl was incubated at 37° C. in vitro with carboxyesterase (0.1 μg/mL), to simulate the ocular physiologic environment and the type of esterase that is readily abundant within the vitreous. […] Upon addition of EY005-stearyl prodrug to phosphate-buffered saline solution at 37° C. without esterase, the ester bond of the EY005-stearyl prodrug cleaves more slowly by hydrolysis (FIG. 28C).
# In some examples of prodrugs, cleavage and release of the free API can be assessed in an in vitro release assay, wherein the prodrug is incubated in a solution containing carboxyesterase (or other natural or synthetic esterase), isolated vitreous recovered from animal (e.g., pig, rabbit, etc.), or isolated vitreous recovered from human donor, at […], […], or other temperatures. […]
# [2] = In vitro to in vivo correlation of fluocinolone acetonide release, rabbit eyes; details: formulations in multiphasic colloidal suspension
# Description: Properties of Kd and binding capacity were calculated for each FA-complex particulate, in dispersal medium (FIG. 15). […] FIG. 16B illustrates other formulations, wherein varying the ratio of drug-complex particulates altered the kinetics of release, as the proportion of complexation agent (KET) with higher avidity (Kd) was increased across the formulations, for a given payload of FA.
# The depicted curves reflect in vitro release profiles, while the individual colored points, circled, represent in vivo release data from rabbit eyes.
# [3] = flowable bolus implant, multiple time points
# [4] = Sunitinib malate bio-erodible tube implant, drug levels in retina tissue of rabbits; format: in vivo, rabbit
# Source text: In another example, formulations of the hydrophilic small molecule sunitinib malate in the multiphasic colloidal suspension were developed (FIGS. 20-22). […] Complexation of sunitinib to selected complexation agents was visually confirmed by admixture and pulldown of sunitinib-complex particulates, which was confirmed since by the yellow-orange color of particulates (sunitinib has orange coloration) (FIG. 21).
# In another example, formulations of the hydrophilic small molecule sunitinib malate in the multiphasic colloidal suspension were developed. […] Complexation of sunitinib to selected complexation agents was visually confirmed by admixture and pulldown of sunitinib-complex particulates, which was confirmed since by the yellow-orange color of particulates (sunitinib has orange coloration). Formulations of sunitinib with two-phase release kinetics in a bio-erodible tube formulation of sunitinib multiphasic colloidal suspension were designed and manufactured. […] Alteration of the ratio of sunitinib-complex particulates reduced the amount of drug released during initial burst and lowered the steady state release.
smiles,measurement,setting,value
"Cc1cc(O)cc(C)c1C[C@H](NC(=O)[C@H](N)CCCNC(=N)N)C(=O)N[C@@H](CCCCN)C(=O)N[C@@H](Cc1ccccc1)C(=O)O [EY005, H-d-Arg-DMT-Lys-Phe] (H-[dR][Dmt]KF-OH; C-terminus assumed)",time beyond which no detectable tissue levels,[1]; bolus formulation of native API administered into the vitreous,≤ 21 days
same,residual drug in recovered bolus/implants,"[1]; rabbits, listed as EY005 native peptide",Recovered implants contained no EY005 native peptide
same,residual drug in recovered bolus/implants,"[1]; rabbits, listed as native API",no residual drug in the recovered bolus
same,tissue concentrations,"[1]; by week 3.5, identical bolus formulation, rabbits",nearly undetectable
"CCCCCCCCCCCCCCCCCCOC(=O)[C@H](Cc1ccccc1)NC(=O)[C@H](CCCCN)NC(=O)[C@H](Cc1c(C)cc(O)cc1C)NC(=O)[C@H](N)CCCNC(=N)N [EY005-stearyl, H-d-Arg-DMT-Lys-Phe(O)-stearyl] (H-[dR][Dmt]KF-X1)","cleavage of the prodrug ester bond, releasing EY005 (HPLC)",carboxyesterase,rapid cleavage of the prodrug ester bond
"CC1(C)O[C@@H]2C[C@H]3[C@@H]4C[C@H](F)C5=CC(=O)C=C[C@]5(C)[C@@]4(F)[C@@H](O)C[C@]3(C)[C@]2(C(=O)CO)O1 [FA, fluocinolone acetonide]",correlation between drug release in vitro and in vivo (retina tissue levels),[2],strong correlation
same,correlation between drug release in vitro and in vivo (retina tissue levels),[2]; listed as fluocinolone acetonide,good in vitro to in vivo correlation
CNC(=O)c1ccccc1Sc1ccc2c(/C=C/c3ccccn3)n[nH]c2c1 [axitinib],drug levels in retina tissue,[3],detectable drug levels in retina tissue
CCN(CC)CCNC(=O)c1c(C)[nH]c(/C=C2\C(=O)Nc3ccc(F)cc32)c1C [sunitinib malate],release kinetics (pharmacokinetics) and tissue levels of tube formulation,[4]; bio-erodible tube formulation,"produced desired tissue levels and durability of release; also recorded: two-phase release with high initial burst, followed by steady-state release"
same,drug levels in retina tissue,"[4]; low and high dose implants, multiple time points",detectable drug levels in retina tissue
